Source: patent publication US20260091026A1, “METHODS OF TREATING INFLAMMATORY DISEASES” (INTERLINE THERAPEUTICS, INC., priority 2023, published 2026)
Where two headings read alike, the source gives them in different places.

How the values were obtained:
[1] = target: T1, RIPK2 (KD)/XIAP (BIR2) (Homo sapiens, UniProt O43353); experiment: RIPK2-XIAP binding competition PPI assay (TR-FRET); details: for Emax / PPI Amax: 50 nM of GSK583 = -100% activity; for Emax: read-out: PPI Amax; for IC50: GST-RIPK2 / His-XIAP (BIR2)-avi, 120 min at 23° C.
T1 construct: made in house; host or cells: baculovirus-infected Sf9 cells
Method in brief: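 After 2 h at 23 °C, complex formation was read as the 665/520 nm emission ratio (337 nm excitation), scaled between uninhibited reaction and 50 nM GSK583. The mix held 1 nM human RIPK2 kinase fragment-GST, 25 nM His-tagged XIAP BIR2 and Tb/XL665 antibodies in pH 7.5 Tris buffer containing vanadate and glycerophosphate.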

[2] = target: T2, GST-RIPK2 fusion protein (human RIPK2 amino acids 1-310) (Homo sapiens, UniProt O43353); experiment: RIPK2 binding competition assay (TR-FRET, Tracer 199); details: displacement of Tracer 199 (10 nM), 45 min at 22° C.
T2 construct: made in house; host or cells: baculovirus-infected Sf9 cells
Text: The ability of selected compounds of Formulas (I) and (II) to inhibit the binding of an Alexa647-labelled ATP-competitive kinase inhibitor to a GST-RIPK2 fusion protein was quantified employing the TR-FRET-based RIPK2 binding competition assay as described in the following paragraphs.
Recombinant fusion protein of N-terminal Glutathione-S-Transferase (GST) and a fragment of human RIPK2 (amino acids 1-310 of accession number 043353), expressed in baculovirus infected Sf9 cells, purified via glutathione affinity chromatography, was used as GST-RIPK2 fusion protein. Tracer 199 from Life Technologies (catalogue no. PR9115B) was used as Alexa647-labelled ATP-competitive kinase inhibitor.
For the assay, 50 nL of a 100-fold concentrated solution of each test compound in DMSO was pipetted into either a black low volume 384-well microtiter plate or a black 1536-well microtiter plate (both Greiner Bio-One, Frickenhausen, Germany), 3 μL solution of Tracer 199 (16.7 nM=>final concentration in 5 μL assay volume is 10 nM) in aqueous assay buffer (25 mM Tris/HCl pH 7.5, 10 mM magnesium chloride (MgCl2), 5 mM β-glycerophosphate, 2.5 mM dithiothreitol (DTT), 0.5 mM ethylene glycol-bis(2-aminoethylether)-N,N,N′,N′-tetraacetic acid (EGTA), 0.5 mM sodium ortho-vanadate, 0.01% (w/v) bovine serum albumin (BSA), 0.005% (w/v) Pluronic F-127 (Sigma)) were added. Then the binding competition was started by the addition of 2 μL of a solution of the GST-RIPK2 fusion protein (2.5 nM=>final conc. in the 5 μL assay volume is 1 nM) and of Anti-GST-Tb (1.25 nM=>final conc. in the 5 μL assay volume is 0.5 nM), a Lumi4®—Tb cryptate-conjugated anti-GST antibody from PerkinElmer (catalogue no 61GSTTAH), in assay buffer.
The resulting mixture was incubated 45 min at 22° C. to allow the formation of a complex between the Tracer 199, the fusion protein and Anti-GST-Tb. Subsequently, the amount of this complex was evaluated by measurement of the resonance energy transfer from the Tb-cryptate to the Tracer 199. Therefore, the fluorescence emissions at 620 nm and 665 nm after excitation at 337 nm were measured in a TR-FRET reader, e.g. a Pherastar FS(BMG Labtechnologies, Offenburg, Germany) or a Viewlux (PerkinElmer). The ratio of the emissions at 665 nm and at 620 nm was taken as the measure of the amount of the complex. The data were normalized (assay reaction without inhibitor=0% activity, all other assay components but no GST-RIPK2 fusion protein=−100% activity).

[3] = test system: THP1-Dual cells, NF-κB pathway (SEAP); experiment: THP-1 Dual cell SEAP assay (L18-MDP stimulated); type: cell-based; details: 10 ng/mL L18-MDP, 20-24 h, SEAP readout, read-out: IFNγ THP1 IC50
Method in brief: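 IC50 values come from non-linear fits of % inhibition of SEAP, measured as QUANTI-Blue optical density (620-655 nm, 2 h) in media-blanked supernatants. These were taken from THP1-Dual cells treated with compound for 30 min before overnight exposure to 10 ng/mL L18-MDP final at 37 °C.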

T2 sequence (O43353 1-310): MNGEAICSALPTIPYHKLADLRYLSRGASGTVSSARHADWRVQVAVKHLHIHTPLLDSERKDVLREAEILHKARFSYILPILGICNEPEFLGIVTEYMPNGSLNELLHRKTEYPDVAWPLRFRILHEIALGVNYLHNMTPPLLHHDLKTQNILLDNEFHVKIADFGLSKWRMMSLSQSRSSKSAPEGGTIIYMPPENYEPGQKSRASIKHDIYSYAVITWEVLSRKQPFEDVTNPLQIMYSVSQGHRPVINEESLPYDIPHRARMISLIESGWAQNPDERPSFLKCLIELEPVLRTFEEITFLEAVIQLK
T1 sequence (O43353 1-310): as above

**Q.** For COc1cc2ncc(-n3cc(NC(=O)N4CCCC4c4ccccc4)cn3)n2cc1S(=O)(=O)C(C)(C)C (racemic) [Example 177, N-(1-(6-(tert-butylsulfonyl)-7-methoxyimidazo[1,2-a]pyridin-3-yl)-1H-pyrazol-4-yl)-2-phenylpyrrolidine-1-carboxamide], which Emax [1] is on record?
**A.** ≥ 80%

**Q.** What about the IC50 [1] of the same molecule?
**A.** > 1000 nM

**Q.** What about the IC50 [2] of the same molecule?
**A.** > 1000 nM

**Q.** What about the IC50 ([3]; Homo sapiens) of the same molecule?
**A.** > 2500 nM

**Q.** How did the Emax [1] turn out when COc1cc2ncc(-n3cc(N4CCC(c5ccccc5)C4=O)cn3)n2cc1S(=O)(=O)C(C)(C)C (racemic) [Example 180, 1-(1-(6-(tert-butylsulfonyl)-7-methoxyimidazo[1,2-a]pyridin-3-yl)-1H-pyrazol-4-yl)-3-phenylpyrrolidin-2-one] was run?
**A.** ≥ 80%

**Q.** What about the IC50 [1] of the same molecule?
**A.** > 1000 nM

**Q.** What about the IC50 [2] of the same molecule?
**A.** > 1000 nM

**Q.** What about the IC50 ([3]; Homo sapiens) of the same molecule?
**A.** > 2500 nM

**Q.** For COc1cc2ncc(-n3cc(NC(=O)N4CCCC4c4ccccc4)cn3)n2cc1S(=O)(=O)C(C)(C)C (single isomer, unassigned) [Example 178, (R)- or (S)-N-(1-(6-(tert-butylsulfonyl)-7-methoxyimidazo[1,2-a]pyridin-3-yl)-1H-pyrazol-4-yl)-2-phenylpyrrolidine-1-carboxamide], which “PPI Amax” value [1] is on record?
**A.** C (Amax of 55%>C>30)

**Q.** And the IC50 [1]?
**A.** > 1000 nM

**Q.** And the IC50 [2]?
**A.** > 1000 nM

**Q.** What about the IC50 ([3]; Homo sapiens) of the same molecule?
**A.** > 2500 nM

**Q.** For COc1cc2ncc(-n3cc(NC(=O)N4CCCC4c4ccccc4)cn3)n2cc1S(=O)(=O)C(C)(C)C (single isomer, unassigned) [Example 179, (S)- or (R)-N-(1-(6-(tert-butylsulfonyl)-7-methoxyimidazo[1,2-a]pyridin-3-yl)-1H-pyrazol-4-yl)-2-phenylpyrrolidine-1-carboxamide], which “PPI Amax” value [1] is on record?
**A.** A (Amax of ≥80%)

**Q.** What about the IC50 [1] of the same molecule?
**A.** > 1000 nM

**Q.** What about the IC50 [2] of the same molecule?
**A.** 500 to 1000 nM

**Q.** What about the IC50 [3] of the same molecule?
**A.** > 2500 nM

**Q.** What does the source list for COc1cc2ncc(-n3cc(N4CCC(c5ccccc5)C4=O)cn3)n2cc1S(=O)(=O)C(C)(C)C (single isomer, unassigned) [Example 182, (R)- or (S)-1-(1-(6-(tert-butylsulfonyl)-7-methoxyimidazo[1,2-a]pyridin-3-yl)-1H-pyrazol-4-yl)-3-phenylpyrrolidin-2-one]?
**A.** PPI Amax [1]: C (Amax of 55%>C>30); IC50 [1]: > 1000 nM; IC50 [2]: > 1000 nM; IC50 ([3]; Homo sapiens): > 2500 nM

**Q.** How did the “PPI Amax” value [1] turn out when COc1cc2ncc(-n3cc(N4CCC(c5ccccc5)C4=O)cn3)n2cc1S(=O)(=O)C(C)(C)C (single isomer, unassigned) [Example 183, (S)- or (R)-1-(1-(6-(tert-butylsulfonyl)-7-methoxy-imidazo[1,2-a]pyridin-3-yl)-1H-pyrazol-4-yl)-3-phenylpyrrolidin-2-one] was run?
**A.** A (Amax of ≥80%)

**Q.** What about the IC50 [1] of the same molecule?
**A.** > 1000 nM

**Q.** And the IC50 [2]?
**A.** > 1000 nM

**Q.** What about the IC50 [3] of the same molecule?
**A.** > 2500 nM

**Q.** How did the Emax [1] turn out when COc1cc2ncc(-n3cc(C(=O)NCc4ccccc4)cn3)n2cc1S(=O)(=O)C(C)(C)C [Example 1, N-benzyl-1-(6-(tert-butylsulfonyl)-7-methoxyimidazo[1,2-a]pyridin-3-yl)-1H-pyrazole-4-carboxamide] was run?
**A.** ≥ 80%

**Q.** What about the IC50 [1] of the same molecule?
**A.** 100 to 1000 nM

**Q.** What about the IC50 [2] of the same molecule?
**A.** 200 to 500 nM

**Q.** And the IC50 ([3]; Homo sapiens)?
**A.** > 2500 nM

**Q.** How did the Emax [1] turn out when COc1cc2ncc(-n3cc(C(=O)NCc4ccccc4Cl)cn3)n2cc1S(=O)(=O)C(C)(C)C [Example 2, 1-(6-(tert-butylsulfonyl)-7-methoxyimidazo [1,2-a]pyridin-3-yl)-N-(2-chlorobenzyl)-1H-pyrazole-4-carboxamide] was run?
**A.** ≥ 80%

**Q.** And the IC50 [1]?
**A.** 100 to 1000 nM

**Q.** What about the IC50 [2] of the same molecule?
**A.** 200 to 500 nM

**Q.** What about the IC50 ([3]; Homo sapiens) of the same molecule?
**A.** > 2500 nM

**Q.** For COc1cc2ncc(-n3cc(C(=O)NCc4ccccc4)c(C)n3)n2cc1S(=O)(=O)C(C)(C)C [Example 148, N-benzyl-1-(6-(tert-butylsulfonyl)-7-methoxyimidazo[1,2-a]pyridin-3-yl)-3-methyl-1H-pyrazole-4-carboxamide], which Emax [1] is on record?
**A.** ≥ 80%

**Q.** And the IC50 [1]?
**A.** 100 to 1000 nM

**Q.** And the IC50 ([3]; Homo sapiens)?
**A.** > 2500 nM

**Q.** How did the Emax [1] turn out when COc1cc2ncc(-c3cc(NC(=O)OCc4ccccc4)n(C)n3)n2cc1S(=O)(=O)C(C)(C)C [Example 149] was run?
**A.** ≥ 80%

**Q.** And the IC50 [1]?
**A.** 10 to 100 nM

**Q.** And the IC50 ([3]; Homo sapiens)?
**A.** 100 to 500 nM

**Q.** How did the Emax [1] turn out when COc1cc2ncc(-c3cc(NC(=O)O[C@@H](C)c4ccccc4)n(C)n3)n2cc1S(=O)(=O)C(C)(C)C [Example 150, (S)-1-phenylethyl (3-(6-(tert-butylsulfonyl)-7-methoxyimidazo[1,2-a]pyridin-3-yl)-1-methyl-1H-pyrazol-5-yl)carbamate] was run?
**A.** ≥ 80%

**Q.** And the IC50 [1]?
**A.** 100 to 1000 nM

**Q.** And the IC50 ([3]; Homo sapiens)?
**A.** 500 to 2500 nM

**Q.** For COc1cc2ncc(-c3cc(NC(=O)O[C@H](C)c4ccccc4)n(C)n3)n2cc1S(=O)(=O)C(C)(C)C [Example 151, (R)-1-phenylethyl (3-(6-(tert-butylsulfonyl)-7-methoxyimidazo[1,2-a]pyridin-3-yl)-1-methyl-1H-pyrazol-5-yl)carbamate], which Emax [1] is on record?
**A.** ≥ 80%

**Q.** And the IC50 [1]?
**A.** < 10 nM

**Q.** What about the IC50 ([3]; Homo sapiens) of the same molecule?
**A.** < 100 nM

**Q.** Which results are given for C[C@H](CO)COc1cc2ncc(-c3cc(NC(=O)Cc4ccccc4Cl)n(C)n3)n2cc1S(=O)(=O)C(C)(C)C [Example 187, (R)-N-(3-(6-(tert-butylsulfonyl)-7-(3-hydroxy-2-methylpropoxy)imidazo [1,2-a]pyridin-3-yl)-1-methyl-1H-pyrazol-5-yl)-2-(2-chlorophenyl)acetamide]?
**A.** Emax [1]: ≥ 80%; IC50 [1]: < 10 nM; IC50 ([3]; Homo sapiens): 100 to 500 nM

**Q.** Which Emax [1] does the source give for C[C@@H](CO)COc1cc2ncc(-c3cc(NC(=O)Cc4ccccc4Cl)n(C)n3)n2cc1S(=O)(=O)C(C)(C)C [Example 188, (S)-N-(3-(6-(tert-butylsulfonyl)-7-(3-hydroxy-2-methylpropoxy)imidazo [1,2-a]pyridin-3-yl)-1-methyl-1H-pyrazol-5-yl)-2-(2-chlorophenyl) acetamide] here?
**A.** ≥ 80%

**Q.** And the IC50 [1]?
**A.** < 10 nM

**Q.** What about the IC50 ([3]; Homo sapiens) of the same molecule?
**A.** 100 to 500 nM

**Q.** Which results are given for CNc1nccn2c(-c3cc(C(=O)NCc4ccccc4)n(C)n3)cnc12 [Example 189, N-benzyl-1-methyl-3-(8-(methylamino)imidazo[1,2-a]pyrazin-3-yl)-1H-pyrazole-5-carboxamide]?
**A.** Emax [1]: 55 to 80%; IC50 [1]: > 1000 nM; IC50 ([3]; Homo sapiens): > 2500 nM

**Q.** How did the Emax [1] turn out when CNc1nccn2c(-c3cc(C(=O)N[C@H](C)c4ccccc4)n(C)n3)cnc12 [Example 190, (R)-1-methyl-3-(8-(methylamino)imidazo [1,2-a]pyrazin-3-yl)-N-(1-phenylethyl)-1H-pyrazole-5-carboxamide] was run?
**A.** 30 to 55%

**Q.** What about the IC50 [1] of the same molecule?
**A.** > 1000 nM

**Q.** What about the IC50 ([3]; Homo sapiens) of the same molecule?
**A.** > 2500 nM

**Q.** COc1cc2ncnc(-c3cc(C(=O)NCc4ccccc4)n(C)n3)c2cc1S(=O)(=O)C(C)(C)C [Example 191, N-benzyl-3-(6-(tert-butylsulfonyl)-7-methoxyquinazolin-4-yl)-1-methyl-1H-pyrazole-5-carboxamide] was tested. Which Emax [1] did it give?
**A.** ≥ 80%

**Q.** What about the IC50 [1] of the same molecule?
**A.** 100 to 1000 nM

**Q.** And the IC50 ([3]; Homo sapiens)?
**A.** > 2500 nM

**Q.** What does the source list for COc1cc2ncnc(-c3cc(C(=O)N[C@H](C)c4ccccc4)n(C)n3)c2cc1S(=O)(=O)C(C)(C)C [Example 192, (R)-3-(6-(tert-butylsulfonyl)-7-methoxyquinazolin-4-yl)-1-methyl-N-(1-phenylethyl)-1H-pyrazole-5-carboxamide]?
**A.** Emax [1]: ≥ 80%; IC50 [1]: 10 to 100 nM; IC50 ([3]; Homo sapiens): 500 to 2500 nM
